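Step 1: Grow cells in 96-well plates. Step 2: Expose to compound for 48 hours at 5 concentrations. Step 3: Interpolate endpoints linearly; if unreached, use highest concentration. The concentration for full growth arrest is given as TGI.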
What was measured:
Experiment in all cases: NCI-60 cell line screen, 48 h
786-0 renal = tested on: 786-0 renal
A498 renal = tested on: A498 renal
A549 NSCLC = tested on: A549 NSCLC
ACHN renal = tested on: ACHN renal
BT-549 breast = tested on: BT-549 breast
CAKI-1 renal = tested on: CAKI-1 renal
CCRF-CEM leukemia = tested on: CCRF-CEM leukemia
COLO 205 colon = tested on: COLO 205 colon
DU-145 prostate = tested on: DU-145 prostate
EKVX NSCLC = tested on: EKVX NSCLC
HCC-2998 colon = tested on: HCC-2998 colon
HCT-116 colon = tested on: HCT-116 colon
HCT-15 colon = tested on: HCT-15 colon
HL-60(TB) leukemia = tested on: HL-60(TB) leukemia
HOP-62 NSCLC = tested on: HOP-62 NSCLC
HOP-92 NSCLC = tested on: HOP-92 NSCLC
HS 578T breast = tested on: HS 578T breast
HT29 colon = tested on: HT29 colon
IGROV1 ovarian = tested on: IGROV1 ovarian
K-562 leukemia = tested on: K-562 leukemia
KM12 colon = tested on: KM12 colon
LOX IMVI melanoma = tested on: LOX IMVI melanoma
M14 melanoma = tested on: M14 melanoma
MALME-3M melanoma = tested on: MALME-3M melanoma
MCF7 breast = tested on: MCF7 breast
MDA-MB-231 breast = tested on: MDA-MB-231 breast
MDA-MB-435 = tested on: MDA-MB-435
MDA-N = tested on: MDA-N
MOLT-4 leukemia = tested on: MOLT-4 leukemia
NCI-H226 lung = tested on: NCI-H226 lung
NCI-H23 lung = tested on: NCI-H23 lung
NCI-H460 lung = tested on: NCI-H460 lung
NCI-H522 lung = tested on: NCI-H522 lung
NCI/ADR-RES ovarian = tested on: NCI/ADR-RES ovarian
OVCAR-3 ovarian = tested on: OVCAR-3 ovarian
OVCAR-4 ovarian = tested on: OVCAR-4 ovarian
OVCAR-5 ovarian = tested on: OVCAR-5 ovarian
OVCAR-8 ovarian = tested on: OVCAR-8 ovarian
PC-3 prostate = tested on: PC-3 prostate
RPMI-8226 leukemia = tested on: RPMI-8226 leukemia
SF-268 CNS = tested on: SF-268 CNS
SF-295 CNS = tested on: SF-295 CNS
SF-539 CNS = tested on: SF-539 CNS
SK-MEL-2 melanoma = tested on: SK-MEL-2 melanoma
SK-MEL-28 melanoma = tested on: SK-MEL-28 melanoma
SK-MEL-5 melanoma = tested on: SK-MEL-5 melanoma
SK-OV-3 ovarian = tested on: SK-OV-3 ovarian
SN12C renal = tested on: SN12C renal
SNB-19 CNS = tested on: SNB-19 CNS
SNB-75 CNS = tested on: SNB-75 CNS
SR leukemia = tested on: SR leukemia
SW-620 colon = tested on: SW-620 colon
T-47D breast = tested on: T-47D breast
TK-10 renal = tested on: TK-10 renal
U251 CNS = tested on: U251 CNS
UACC-257 melanoma = tested on: UACC-257 melanoma
UACC-62 melanoma = tested on: UACC-62 melanoma
RXF 393 renal = tested on: RXF 393 renal
UO-31 renal = tested on: UO-31 renal

Cn1c2ccc(Cl)cc2c2ccc3c(c21)C(=O)C=CC3=O
TGI (786-0 renal): > 10 µM
TGI (A498 renal): > 10 µM
TGI (A549 NSCLC): > 10 µM
TGI (ACHN renal): > 10 µM
TGI (BT-549 breast): > 10 µM
TGI (CAKI-1 renal): > 10 µM
TGI (CCRF-CEM leukemia): > 10 µM
TGI (COLO 205 colon): > 10 µM
TGI (DU-145 prostate): > 10 µM
TGI (EKVX NSCLC): > 10 µM
TGI (HCC-2998 colon): > 10 µM
TGI (HCT-116 colon): > 10 µM
TGI (HCT-15 colon): > 10 µM
TGI (HL-60(TB) leukemia): > 10 µM
TGI (HOP-62 NSCLC): > 10 µM
TGI (HOP-92 NSCLC): > 10 µM
TGI (HS 578T breast): > 10 µM
TGI (HT29 colon): > 10 µM
TGI (IGROV1 ovarian): > 10 µM
TGI (K-562 leukemia): > 10 µM
TGI (KM12 colon): > 10 µM
TGI (LOX IMVI melanoma): > 10 µM
TGI (M14 melanoma): > 10 µM
TGI (MALME-3M melanoma): > 10 µM
TGI (MCF7 breast): > 10 µM
TGI (MDA-MB-231 breast): > 10 µM
TGI (MDA-MB-435): > 10 µM
TGI (MDA-N): > 10 µM
TGI (MOLT-4 leukemia): > 10 µM
TGI (NCI-H226 lung): > 10 µM
TGI (NCI-H23 lung): > 10 µM
TGI (NCI-H460 lung): > 10 µM
TGI (NCI-H522 lung): > 10 µM
TGI (NCI/ADR-RES ovarian): > 10 µM
TGI (OVCAR-3 ovarian): > 10 µM
TGI (OVCAR-4 ovarian): > 10 µM
TGI (OVCAR-5 ovarian): > 10 µM
TGI (OVCAR-8 ovarian): > 10 µM
TGI (PC-3 prostate): > 10 µM
TGI (RPMI-8226 leukemia): > 10 µM
TGI (SF-268 CNS): > 10 µM
TGI (SF-295 CNS): > 10 µM
TGI (SF-539 CNS): > 10 µM
TGI (SK-MEL-2 melanoma): > 10 µM
TGI (SK-MEL-28 melanoma): > 10 µM
TGI (SK-MEL-5 melanoma): > 10 µM
TGI (SK-OV-3 ovarian): > 10 µM
TGI (SN12C renal): > 10 µM
TGI (SNB-19 CNS): > 10 µM
TGI (SNB-75 CNS): > 10 µM
TGI (SR leukemia): > 10 µM
TGI (SW-620 colon): > 10 µM
TGI (T-47D breast): > 10 µM
TGI (TK-10 renal): > 10 µM
TGI (U251 CNS): > 10 µM
TGI (UACC-257 melanoma): > 10 µM
TGI (UACC-62 melanoma): > 10 µM

CCCC1=C(OC)C(=O)c2c(C)cc(Cl)nc2C1=O
TGI (786-0 renal): 5.23 µM
TGI (A498 renal): 35 µM
TGI (A549 NSCLC): 26.9 µM
TGI (ACHN renal): 17.4 µM
TGI (BT-549 breast): 26.5 µM
TGI (CAKI-1 renal): 21.7 µM
TGI (CCRF-CEM leukemia): 2.77 µM
TGI (COLO 205 colon): 22.1 µM
TGI (DU-145 prostate): 28.6 µM
TGI (EKVX NSCLC): 20.7 µM
TGI (HCC-2998 colon): 20.2 µM
TGI (HCT-116 colon): 7.26 µM
TGI (HCT-15 colon): 11.2 µM
TGI (HL-60(TB) leukemia): 3.65 µM
TGI (HOP-62 NSCLC): 29.9 µM
TGI (HOP-92 NSCLC): 11.3 µM
TGI (HS 578T breast): > 47 µM
TGI (HT29 colon): 8.45 µM
TGI (IGROV1 ovarian): 30.3 µM
TGI (KM12 colon): 18.1 µM
TGI (LOX IMVI melanoma): 5.15 µM
TGI (M14 melanoma): 18.9 µM
TGI (MALME-3M melanoma): 9.71 µM
TGI (MCF7 breast): 6.17 µM
TGI (MDA-MB-231 breast): 19.5 µM
TGI (MDA-MB-435): 3.45 µM
TGI (MDA-N): 3.33 µM
TGI (MOLT-4 leukemia): 3.72 µM
TGI (NCI-H226 lung): 33.2 µM
TGI (NCI-H23 lung): 13.7 µM
TGI (NCI-H460 lung): 26.6 µM
TGI (NCI-H522 lung): 8.06 µM
TGI (NCI/ADR-RES ovarian): 14.2 µM
TGI (OVCAR-3 ovarian): 6.54 µM
TGI (OVCAR-4 ovarian): 19.5 µM
TGI (OVCAR-5 ovarian): 29.1 µM
TGI (OVCAR-8 ovarian): 23.7 µM
TGI (PC-3 prostate): 26.4 µM
TGI (RPMI-8226 leukemia): 5.98 µM
TGI (RXF 393 renal): 20.2 µM
TGI (SF-268 CNS): 27.2 µM
TGI (SF-295 CNS): 31.9 µM
TGI (SF-539 CNS): 20.3 µM
TGI (SK-MEL-2 melanoma): 24.4 µM
TGI (SK-MEL-28 melanoma): 16.7 µM
TGI (SK-MEL-5 melanoma): 16.7 µM
TGI (SK-OV-3 ovarian): 31 µM
TGI (SN12C renal): 9.62 µM
TGI (SNB-19 CNS): 34.9 µM
TGI (SNB-75 CNS): 20.1 µM
TGI (SR leukemia): 5.11 µM
TGI (SW-620 colon): 10.5 µM
TGI (T-47D breast): 9.83 µM
TGI (TK-10 renal): 34.5 µM
TGI (U251 CNS): 18.6 µM
TGI (UACC-257 melanoma): 19.7 µM
TGI (UACC-62 melanoma): 13.8 µM
TGI (UO-31 renal): 26.5 µM

COc1ccc(-n2c(N)c(C#N)c(C#N)c2-c2ccco2)cc1
TGI (786-0 renal): > 100 µM
TGI (A498 renal): > 100 µM
TGI (A549 NSCLC): > 100 µM
TGI (ACHN renal): > 100 µM
TGI (BT-549 breast): > 100 µM
TGI (CAKI-1 renal): > 100 µM
TGI (CCRF-CEM leukemia): > 100 µM
TGI (COLO 205 colon): > 100 µM
TGI (DU-145 prostate): > 100 µM
TGI (EKVX NSCLC): > 100 µM
TGI (HCC-2998 colon): > 100 µM
TGI (HCT-116 colon): > 100 µM
TGI (HCT-15 colon): > 100 µM
TGI (HL-60(TB) leukemia): > 100 µM
TGI (HOP-62 NSCLC): > 100 µM
TGI (HOP-92 NSCLC): > 100 µM
TGI (HS 578T breast): > 100 µM
TGI (HT29 colon): > 100 µM
TGI (IGROV1 ovarian): > 100 µM
TGI (K-562 leukemia): > 100 µM
TGI (KM12 colon): > 100 µM
TGI (LOX IMVI melanoma): > 100 µM
TGI (M14 melanoma): > 100 µM
TGI (MALME-3M melanoma): > 100 µM
TGI (MCF7 breast): > 100 µM
TGI (MDA-MB-231 breast): > 100 µM
TGI (MDA-MB-435): > 100 µM
TGI (MDA-N): > 100 µM
TGI (MOLT-4 leukemia): > 100 µM
TGI (NCI-H226 lung): > 100 µM
TGI (NCI-H23 lung): > 100 µM
TGI (NCI-H522 lung): > 100 µM
TGI (NCI/ADR-RES ovarian): > 100 µM
TGI (OVCAR-3 ovarian): > 100 µM
TGI (OVCAR-4 ovarian): > 100 µM
TGI (OVCAR-5 ovarian): > 100 µM
TGI (OVCAR-8 ovarian): > 100 µM
TGI (PC-3 prostate): > 100 µM
TGI (RPMI-8226 leukemia): > 100 µM
TGI (RXF 393 renal): > 100 µM
TGI (SF-268 CNS): > 100 µM
TGI (SF-295 CNS): > 100 µM
TGI (SF-539 CNS): > 100 µM
TGI (SK-MEL-2 melanoma): > 100 µM
TGI (SK-MEL-5 melanoma): > 100 µM
TGI (SK-OV-3 ovarian): > 100 µM
TGI (SN12C renal): > 100 µM
TGI (SNB-19 CNS): > 100 µM
TGI (SNB-75 CNS): > 100 µM
TGI (SR leukemia): > 100 µM
TGI (SW-620 colon): > 100 µM
TGI (T-47D breast): > 100 µM
TGI (TK-10 renal): > 100 µM
TGI (U251 CNS): > 100 µM
TGI (UACC-257 melanoma): > 100 µM
TGI (UACC-62 melanoma): > 100 µM
TGI (UO-31 renal): > 100 µM
